Structures can show the parent of a compound that is named as a salt.
Test system: NIH-3T3/Gli reporter cells
Test: Evaluation of compound: Shh-N-induced luciferase activity in NIH-3T3/Gli reporter cells (Smo inhibitory action)
Format: cell-based
Conditions: 48 hr; for inhibition at 1 µM: NIH3T3, 1 μM compound, mouse Shh-N end fragment supernatant, read-out: inhibition rate (%) at 1 μM; for IC50: NIH3T3, mouse Shh-N end fragment supernatant, read-out: IC50 value (compound concentration necessary for achieving 50% of the maximum value of inhibition rate)
Protocol: HEK293 cells were grown in D-MEM medium (Invitrogen) containing 10% fetal bovine serum in a 10 cm dish and pcDNA3.1/mShh-N was introduced into the cells using FuGENE6 (Roche Applied Science). Thereafter, the HEK293 cells were cultured in a carbon dioxide gas incubator at 37° C. for 24 hours, and the medium was exchanged with D-MEM medium (Invitrogen) containing 2% fetal bovine serum. After culturing for 48 hr, a culture supernatant containing recombinant type mouse Shh-N end fragment was obtained by filtration using a filter ([…]).
Using D-MEM (Invitrogen) containing 10% fetal bovine serum, expression plasmid pcDNA3.1 and Gli reporter plasmid (pGL3/δ-cry promoter, 8×Gli binding site) produced by the method of Experimental Example 1 were introduced into NIH-3T3 cells grown in a 10 cm dish by the use of FuGENE6 (Roche Applied Science).
After culture for 24 hr, the cells were recovered, suspended in D-MEM medium containing 10% fetal bovine serum and supplemented with Geneticin (Life Technologies Oriental, Inc.) to a final concentration of 500 μg/ml, diluted to 10^4 cells/ml, plated on a 96 well plate, and cultured in a carbon dioxide gas incubator at 37° C. to give Geneticin resistant transformed cell line.
The obtained transformed cell line was cultured in a 96 well plate, mouse Shh-N end fragment obtained in Experimental Example 3 was added, and NIH-3T3/Gli reporter cell, which is a cell line capable of induction of luciferase expression, was selected.
NIH-3T3/Gli reporter cells cultured in D-MEM (Invitrogen) containing 10% fetal bovine serum were plated in a 96 well white plate at 1×10^4 cells/well, and cultured overnight in a carbon dioxide gas incubator at 37° C. The medium was removed, a compound (50 μl) and culture supernatant of mouse Shh-N end fragment-expressing HEK293 (D-MEM medium containing 2% fetal bovine serum, 50 μl) were added, and the cells were cultured for 48 hr in a carbon dioxide gas incubator at 37° C. Bright-Glo (Promega, 50 μl) was added, and the mixture was stirred, after which luciferase activity was measured by EnVision (PerkinElmer). The inhibition rate was calculated based on the luciferase activity of the control without addition of the compound as 100. The concentration of the compound and the inhibition rate were analyzed by PRISM3.00 (software of GraphPad), based on which the IC50 value (compound concentration necessary for achieving 50% of the maximum value of inhibition rate) of the compound was calculated.

| SMILES | inhibition at 1 µM | IC50 |
| --- | --- | --- |
| CCN(CC)CCCC(C)NC(=O)c1sc2c(c1OC)c(=O)n(CC(=O)c1ccccc1)c1ccccc21 (stereo not drawn) [Example 13, N-[4-(diethylamino)-1-methylbutyl]-3-methoxy-4-oxo-5-(2-oxo-2-phenylethyl)-4,5-dihydrothieno[3,2-c]quinoline-2-carboxamide trifluoroacetate] | 100% | ≤ 1000 nM |
| COc1c(C(=O)NCC(C)(C)CO)n(C)c2c1c(=O)n(CC(=O)c1ccccc1)c1ccccc21 [Example 109, N-(3-hydroxy-2,2-dimethylpropyl)-3-methoxy-1-methyl-4-oxo-5-(2-oxo-2-phenylethyl)-4,5-dihydro-1H-pyrrolo[3,2-c]quinoline-2-carboxamide] | 100% | ≤ 1000 nM |
| CCc1cc2c(c(OCC(F)(F)F)c(C(=O)NC3CCN(C(=O)CO)CC3)n2C)c(=O)n1CC(=O)c1cccc(Cl)c1 [Example 657, 5-[2-(3-chlorophenyl)-2-oxoethyl]-6-ethyl-N-[1-(hydroxyacetyl)piperidin-4-yl]-1-methyl-4-oxo-3-(2,2,2-trifluoroethoxy)-4,5-dihydro-1H-pyrrolo[3,2-c]pyridine-2-carboxamide] | 100% | – |
| COc1c(C(=O)N(C)C2CCN(C)C2)sc2c1c(=O)n(CC(=O)c1ccccc1)c1ccccc21 (stereo not drawn) [Example 16, 3-methoxy-N-methyl-N-(1-methylpyrrolidin-3-yl)-4-oxo-5-(2-oxo-2-phenylethyl)-4,5-dihydrothieno[3,2-c]quinoline-2-carboxamide trifluoroacetate] | 100% | ≤ 1000 nM |
| COc1c(C(=O)NCC2CCCCN2)sc2c1c(=O)n(CC(=O)c1ccccc1)c1ccccc21 (stereo not drawn) [Example 74, 3-methoxy-4-oxo-5-(2-oxo-2-phenylethyl)-N-(piperidin-2-ylmethyl)-4,5-dihydrothieno[3,2-c]quinoline-2-carboxamide hydrochloride] | 100% | ≤ 1000 nM |
| COc1c(C(=O)NC2CCN(C(=O)CO)CC2)n(C)c2c1c(=O)n(CC(=O)c1ccccc1)c1ccncc21 [Example 644, N-[1-(hydroxyacetyl)piperidin-4-yl]-3-methoxy-1-methyl-4-oxo-5-(2-oxo-2-phenylethyl)-4,5-dihydro-1H-pyrrolo[3,2-c][1,6]naphthyridine-2-carboxamide] | 100% | – |
| COc1c(C(=O)N(CCC#N)Cc2cccnc2)sc2c1c(=O)n(CC(=O)c1ccccc1)c1ccccc21 [Example 22, N-(2-cyanoethyl)-3-methoxy-4-oxo-5-(2-oxo-2-phenylethyl)-N-(pyridin-3-ylmethyl)-4,5-dihydrothieno[3,2-c]quinoline-2-carboxamide trifluoroacetate] | 91% | ≤ 1000 nM |
| CCCOc1c(C(=O)NC2CCN(C(=O)CO)CC2)n(C)c2cc(C)n(CC(=O)c3ccccc3)c(=O)c12 [Example 137, N-[1-(hydroxyacetyl)piperidin-4-yl]-1,6-dimethyl-4-oxo-5-(2-oxo-2-phenylethyl)-3-propoxy-4,5-dihydro-1H-pyrrolo[3,2-c]pyridine-2-carboxamide] | 100% | – |
| COc1c(C(=O)N(C)CCNC(C)C)sc2c1c(=O)n(CC(=O)c1ccccc1)c1ccccc21 [Example 115, 3-methoxy-N-methyl-N-{2-[(1-methylethyl)amino]ethyl}-4-oxo-5-(2-oxo-2-phenylethyl)-4,5-dihydrothieno[3,2-c]quinoline-2-carboxamide hydrochloride] | 100% | ≤ 1000 nM |
| COc1c(C(=O)NCCO)sc2c1c(=O)n(CC(=O)c1ccccc1)c1ccccc21 [Example 32, N-(2-hydroxyethyl)-3-methoxy-4-oxo-5-(2-oxo-2-phenylethyl)-4,5-dihydrothieno[3,2-c]quinoline-2-carboxamide] | 95% | ≤ 1000 nM |
| CCOc1c(C(=O)NC2CCN(C(=O)CO)CC2)sc2cc(CC)n(CC(=O)c3ccccc3)c(=O)c12 [Example 650, 3-ethoxy-6-ethyl-N-[1-(hydroxyacetyl)piperidin-4-yl]-4-oxo-5-(2-oxo-2-phenylethyl)-4,5-dihydrothieno[3,2-c]pyridine-2-carboxamide] | 100% | – |
| COc1c(C(=O)NCCN2CCOCC2)n(C)c2c1c(=O)n(CC(=O)c1ccccc1)c1ccccc21 [Example 71, 3-methoxy-1-methyl-N-(2-morpholin-4-ylethyl)-4-oxo-5-(2-oxo-2-phenylethyl)-4,5-dihydro-1H-pyrrolo[3,2-c]quinoline-2-carboxamide] | 100% | ≤ 1000 nM |
| CCN(C(C)=O)C1CCN(C(=O)c2sc3c(c2OC)c(=O)n(CC(=O)c2ccccc2)c2ccccc32)C1 (stereo not drawn) [Example 2, N-ethyl-N-(1-{[3-methoxy-4-oxo-5-(2-oxo-2-phenylethyl)-4,5-dihydrothieno[3,2-c]quinolin-2-yl]carbonyl}pyrrolidin-3-yl)acetamide] | 100% | ≤ 1000 nM |
| COc1c(C(=O)N(C)CC(=O)N2CCCC2)sc2c1c(=O)n(CC(=O)c1ccccc1)c1ccccc21 [Example 27, 3-methoxy-N-methyl-4-oxo-5-(2-oxo-2-phenylethyl)-N-(2-oxo-2-pyrrolidin-1-ylethyl)-4,5-dihydrothieno[3,2-c]quinoline-2-carboxamide] | 100% | ≤ 1000 nM |
| CCc1cc2c(c(OC)c(C(=O)NC3CCN(C(=O)CO)CC3)n2C)c(=O)n1CC(=O)c1ccccc1 [Example 131, 6-ethyl-N-[1-(hydroxyacetyl)piperidin-4-yl]-3-methoxy-1-methyl-4-oxo-5-(2-oxo-2-phenylethyl)-4,5-dihydro-1H-pyrrolo[3,2-c]pyridine-2-carboxamide] | 100% | – |
| COc1c(C(=O)NC2CCN(C(=O)CO)CC2)sc2c1c(=O)n(CC(=O)c1ccccc1)c1ccc(F)cc21 [Example 562, 8-fluoro-N-[1-(hydroxyacetyl)piperidin-4-yl]-3-methoxy-4-oxo-5-(2-oxo-2-phenylethyl)-4,5-dihydrothieno[3,2-c]quinoline-2-carboxamide] | 100% | – |
| CCc1cc2c(c(OCC(F)(F)F)c(C(=O)NC3CCN(C(=O)CO)CC3)n2C)c(=O)n1Cc1ccccc1OC [Example 658, 6-ethyl-N-[1-(hydroxyacetyl)piperidin-4-yl]-5-(2-methoxybenzyl)-1-methyl-4-oxo-3-(2,2,2-trifluoroethoxy)-4,5-dihydro-1H-pyrrolo[3,2-c]pyridine-2-carboxamide] | 100% | – |
| COc1c(C(=O)NCCN2CCC(O)CC2)n(C)c2c1c(=O)n(CC(=O)c1ccccc1)c1ccccc21 [Example 69, N-[2-(4-hydroxypiperidin-1-yl)ethyl]-3-methoxy-1-methyl-4-oxo-5-(2-oxo-2-phenylethyl)-4,5-dihydro-1H-pyrrolo[3,2-c]quinoline-2-carboxamide] | 100% | ≤ 1000 nM |
| COc1c(C(=O)NC2CCN(c3ccncc3)CC2)n(C)c2cc(C)n(CC(=O)c3ccccc3)c(=O)c12 [Example 135, 3-methoxy-1,6-dimethyl-4-oxo-5-(2-oxo-2-phenylethyl)-N-(1-pyridin-4-ylpiperidin-4-yl)-4,5-dihydro-1H-pyrrolo[3,2-c]pyridine-2-carboxamide] | 100% | – |

Reference: patent US8217176B2, “Fused heterocyclic derivative and use thereof” (Takeda Pharmaceutical Company Limited, priority 2008, dated 2012)
